Reference: patent publication US20240208909A1, “SUBSTITUTED QUINOLINE DERIVATIVES HAVING SOS1 INHIBITION ACTIVITIES AND USES THEREOF” (Accutar Biotechnology Inc., priority 2022, published 2024)

Key:
K562 cells = experiment: Cell growth inhibition of K562 cells (CellTiter-Glo); format: cell-based; details: Homo sapiens, 120 h, 5 days
SOS1/KRAS-G12D = SOS1/KRAS-G12D (Homo sapiens (Human), UniProt Q07889); experiment: SOS1/KRAS-G12D binding inhibition assay (AlphaScreen); details: GST-SOS1 and 6*His KRAS-G12D, read-out: KrasG12D/SOS1 binding IC50
In short: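 GST-SOS1 (5 nM) pre-incubated 30 min with His6-KRAS-G12D (50 nM) in HEPES pH 7.4, NaCl, DTT, MgCl2, Tween-20, BSA; compound in 2% DMSO then added for 30 min at 4° C. GSH donor and Ni-NTA acceptor AlphaScreen beads, 2 h at 4° C; background-corrected % inhibition versus DMSO, IC50 by variable-slope nonlinear regression.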

[1] = system: Phospho-ERK1/2 in DLD1 cells; experiment: Phospho-ERK1/2 expression inhibition in DLD1 cells; format: cell-based; details: Homo sapiens, DLD-1, 4 hours, read-out: DLD1 pERK IC50
In short: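 DLD1 cells (15,000/well) were plated overnight, then exposed to compounds for 4 h at 37 °C. Cells were formaldehyde-fixed and methanol-permeabilized. Phospho-ERK1/2 was detected in-cell with rabbit anti-phospho-ERK1/2 and an IRDye 800CW secondary antibody, imaged on a LI-COR Odyssey.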

Chain of SOS1/KRAS-G12D (Q07889 564-1049 limits assumed): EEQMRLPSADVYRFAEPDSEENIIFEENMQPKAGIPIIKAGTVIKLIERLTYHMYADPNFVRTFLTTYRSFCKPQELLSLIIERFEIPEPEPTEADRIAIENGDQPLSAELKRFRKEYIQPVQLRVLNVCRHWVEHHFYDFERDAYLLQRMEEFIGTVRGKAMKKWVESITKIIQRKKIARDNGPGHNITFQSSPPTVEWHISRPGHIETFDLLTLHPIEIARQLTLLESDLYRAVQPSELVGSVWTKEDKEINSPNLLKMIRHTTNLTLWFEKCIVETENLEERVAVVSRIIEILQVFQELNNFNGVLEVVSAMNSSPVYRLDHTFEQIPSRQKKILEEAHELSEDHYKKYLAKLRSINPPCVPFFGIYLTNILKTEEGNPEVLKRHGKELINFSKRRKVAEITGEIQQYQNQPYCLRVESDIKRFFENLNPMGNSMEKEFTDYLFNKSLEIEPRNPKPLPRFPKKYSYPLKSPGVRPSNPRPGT

SMILES: CC(=O)N1CCC(O)(c2ccc3nccc(N[C@H](C)c4cccc(C(F)F)c4F)c3c2)C1 (stereo partly drawn) [Compound 83, 1-(3-(4-(((R)-1-(3-(difluoromethyl)-2-fluorophenyl)ethyl)amino)quinolin-6-yl)-3-hydroxypyrrolidin-1-yl)ethan-1-one]
- GI50 (K562 cells): ≤ 0.1 µM
- IC50 (SOS1/KRAS-G12D): ≤ 0.01 µM
- IC50 [1]: 0.15 to 0.5 µM

SMILES: CC(=O)N1CCC(F)(c2ccc3nccc(NC(C)c4cccc(C(F)F)c4F)c3c2)CC1 (stereo not drawn) [Compound 84, 1-(4-(4-((1-(3-(difluoromethyl)-2-fluorophenyl)ethyl)amino)quinolin-6-yl)-4-fluoropiperidin-1-yl)ethan-1-one]
- GI50 (K562 cells): ≤ 0.1 µM
- IC50 (SOS1/KRAS-G12D): ≤ 0.01 µM
- IC50 [1]: 0.15 to 0.5 µM

SMILES: CC(=O)N1CC[C@](F)(c2ccc3nccc(N[C@H](C)c4cccc(C(F)F)c4F)c3c2)C1 [Compound 85, 1-((S)-3-(4-(((R)-1-(3-(difluoromethyl)-2-fluorophenyl)ethyl)amino)quinolin-6-yl)-3-fluoropyrrolidin-1-yl)ethan-1-one]
- GI50 (K562 cells): 0.1 to 0.5 µM
- IC50 (SOS1/KRAS-G12D): ≤ 0.01 µM
- IC50 [1]: > 0.5 µM

SMILES: CO[C@@]1(c2ccc3nccc(N[C@H](C)c4cccc(C#N)c4C)c3c2)CCN(C(C)=O)C1 [Compound 87, 3-((R)-1-((6-((R)-1-acetyl-3-methoxypyrrolidin-3-yl)quinolin-4-yl)amino)ethyl)-2-methylbenzonitrile]
- GI50 (K562 cells): > 0.5 µM
- IC50 (SOS1/KRAS-G12D): > 0.1 µM
- IC50 [1]: > 0.5 µM

SMILES: CO[C@]1(c2ccc3nccc(N[C@H](C)c4cccc(C#N)c4C)c3c2)CCN(C(C)=O)C1 [Compound 88, 3-((R)-1-((6-((S)-1-acetyl-3-methoxypyrrolidin-3-yl)quinolin-4-yl)amino)ethyl)-2-methylbenzonitrile]
- GI50 (K562 cells): 0.1 to 0.5 µM
- IC50 (SOS1/KRAS-G12D): 0.01 to 0.1 µM
- IC50 [1]: ≤ 0.15 µM

SMILES: COC(=O)N1CC[C@](OC)(c2ccc3nccc(N[C@H](C)c4cccc(C(F)F)c4F)c3c2)C1 [Compound 89, methyl (S)-3-(4-(((R)-1-(3-(difluoromethyl)-2-fluorophenyl)ethyl)amino)quinolin-6-yl)-3-methoxypyrrolidine-1-carboxylate]
- GI50 (K562 cells): ≤ 0.1 µM
- IC50 (SOS1/KRAS-G12D): ≤ 0.01 µM
- IC50 [1]: > 0.5 µM

SMILES: COC(=O)N1CC[C@@](OC)(c2ccc3nccc(N[C@H](C)c4cccc(C(F)F)c4F)c3c2)C1 [Compound 90, methyl (R)-3-(4-(((R)-1-(3-(difluoromethyl)-2-fluorophenyl)ethyl)amino)quinolin-6-yl)-3-methoxypyrrolidine-1-carboxylate]
- GI50 (K562 cells): 0.1 to 0.5 µM
- IC50 (SOS1/KRAS-G12D): 0.01 to 0.1 µM
- IC50 [1]: > 0.5 µM

SMILES: CO[C@@]1(c2ccc3nccc(N[C@H](C)c4cccc(C(F)F)c4F)c3c2)CCN(C(=O)C(C)C)C1 [Compound 91, 1-((R)-3-(4-(((R)-1-(3-(difluoromethyl)-2-fluorophenyl)ethyl)amino)quinolin-6-yl)-3-methoxypyrrolidin-1-yl)-2-methylpropan-1-one]
- GI50 (K562 cells): 0.1 to 0.5 µM
- IC50 (SOS1/KRAS-G12D): ≤ 0.01 µM
- IC50 [1]: > 0.5 µM

SMILES: CO[C@]1(c2ccc3nccc(N[C@H](C)c4cccc(C(F)F)c4F)c3c2)CCN(C(=O)C(C)C)C1 [Compound 92, 1-((S)-3-(4-(((R)-1-(3-(difluoromethyl)-2-fluorophenyl)ethyl)amino)quinolin-6-yl)-3-methoxypyrrolidin-1-yl)-2-methylpropan-1-one]
- GI50 (K562 cells): ≤ 0.1 µM
- IC50 (SOS1/KRAS-G12D): ≤ 0.01 µM
- IC50 [1]: ≤ 0.15 µM

SMILES: CO[C@@]1(c2ccc3nccc(N[C@H](C)c4cccc(C(F)F)c4F)c3c2)CCN(C(=O)C2CC2)C1 [Compound 95, cyclopropyl((R)-3-(4-(((R)-1-(3-(difluoromethyl)-2-fluorophenyl)ethyl)amino)quinolin-6-yl)-3-methoxypyrrolidin-1-yl)methanone]
- GI50 (K562 cells): 0.1 to 0.5 µM
- IC50 (SOS1/KRAS-G12D): ≤ 0.01 µM
- IC50 [1]: > 0.5 µM

SMILES: CO[C@]1(c2ccc3nccc(N[C@H](C)c4cccc(C(F)F)c4F)c3c2)CCN(C(=O)C2CC2)C1 [Compound 96, cyclopropyl((S)-3-(4-(((R)-1-(3-(difluoromethyl)-2-fluorophenyl)ethyl)amino)quinolin-6-yl)-3-methoxypyrrolidin-1-yl)methanone]
- GI50 (K562 cells): ≤ 0.1 µM
- IC50 (SOS1/KRAS-G12D): ≤ 0.01 µM
- IC50 [1]: 0.15 to 0.5 µM

SMILES: CC(=O)N1CC=C(c2ccc3nccc(N[C@H](C)c4cccc(C(F)F)c4F)c3c2)C1 [Compound 97, (R)-1-(3-(4-((1-(3-(difluoromethyl)-2-fluorophenyl)ethyl)amino)quinolin-6-yl)-2,5-dihydro-1H-pyrrol-1-yl)ethan-1-one]
- GI50 (K562 cells): 0.1 to 0.5 µM
- IC50 (SOS1/KRAS-G12D): 0.01 to 0.1 µM
- IC50 [1]: > 0.5 µM

SMILES: CO[C@]1(c2ccc3nccc(N[C@H](C)c4cccc(C(F)F)c4F)c3c2)CCN(C(=O)N(C)C)C1 [Compound 98, (S)-3-(4-(((R)-1-(3-(difluoromethyl)-2-fluorophenyl)ethyl)amino)quinolin-6-yl)-3-methoxy-N,N-dimethylpyrrolidine-1-carboxamide]
- GI50 (K562 cells): 0.1 to 0.5 µM
- IC50 (SOS1/KRAS-G12D): ≤ 0.01 µM
- IC50 [1]: > 0.5 µM

SMILES: CO[C@@]1(c2ccc3nccc(N[C@H](C)c4cccc(C(F)F)c4F)c3c2)CCN(C(=O)N(C)C)C1 [Compound 99, (R)-3-(4-(((R)-1-(3-(difluoromethyl)-2-fluorophenyl)ethyl)amino)quinolin-6-yl)-3-methoxy-N,N-dimethylpyrrolidine-1-carboxamide]
- GI50 (K562 cells): ≤ 0.1 µM
- IC50 (SOS1/KRAS-G12D): ≤ 0.01 µM
- IC50 [1]: 0.15 to 0.5 µM

SMILES: COC(=O)N1CCC(OC)(c2ccc3nccc(N[C@H](C)c4cccc(C(F)F)c4F)c3c2)CC1 [Compound 100, methyl (R)-4-(4-((1-(3-(difluoromethyl)-2-fluorophenyl)ethyl)amino)quinolin-6-yl)-4-methoxypiperidine-1-carboxylate]
- GI50 (K562 cells): 0.1 to 0.5 µM
- IC50 (SOS1/KRAS-G12D): ≤ 0.01 µM
- IC50 [1]: 0.15 to 0.5 µM

SMILES: CNC(=O)N1CC[C@@](OC)(c2ccc3nccc(N[C@H](C)c4cccc(C(F)F)c4F)c3c2)C1 [Compound 101, (R)-3-(4-(((R)-1-(3-(difluoromethyl)-2-fluorophenyl)ethyl)amino)quinolin-6-yl)-3-methoxy-N-methylpyrrolidine-1-carboxamide]
- GI50 (K562 cells): 0.1 to 0.5 µM
- IC50 (SOS1/KRAS-G12D): ≤ 0.01 µM
- IC50 [1]: > 0.5 µM

SMILES: CNC(=O)N1CC[C@](OC)(c2ccc3nccc(N[C@H](C)c4cccc(C(F)F)c4F)c3c2)C1 [Compound 102, (S)-3-(4-(((R)-1-(3-(difluoromethyl)-2-fluorophenyl)ethyl)amino)quinolin-6-yl)-3-methoxy-N-methylpyrrolidine-1-carboxamide]
- GI50 (K562 cells): ≤ 0.1 µM
- IC50 (SOS1/KRAS-G12D): ≤ 0.01 µM
- IC50 [1]: ≤ 0.15 µM
